# Test results from PMC9046089, “CCNE1 amplification is synthetic lethal with PKMYT1 kinase inhibition” (Nature, 2022).
# Several values for one entry are separate records, joined by “and”; a condition that tells them apart may be missing. Equal entries are not always repeated. Where two headings read alike, the source gives them in different places.
# Key:
# Format in all cases: cell-based
# [1] = test system: CDK1; assay: Immune complex histone H1 kinase assay, IP-CDK1, FT282 CCNE1-high cells; details: 24 h; for 32P-labelled histone H1 band intensity, IP-CDK1 kinase assay: 0 nM = 1
# Protocol: (§1) Protein concentration was determined by Bradford assay (Thermo Fisher Scientific cat. no. 1856209). For immunoprecipitation of kinases, 200 μg of extract was diluted in 750 μl EBN buffer and 10 μg of CDK1 or CDK2 primary antibody agarose bead conjugates were added to the extract and rotated at 4 °C overnight. Immunoprecipitates were pelleted by centrifugation at 2,500g at 4 °C for 5 min and washed 2× in 750 μl EBN followed by 1 ml EB (80 mM β-glycerol phosphate, 15 mM MgCl2, 20 mM EGTA, 1 mg ml^−1 ovalbumin). After the final wash, the immunoprecipitates were resuspended in 500 μl EB and split into two samples. One sample was used for immunoblot analysis and the other used for kinase assays. Following removal of the final wash, immunoprecipitates were resuspended in 11 μl histone H1 kinase assay buffer (80 mM β-glycerol phosphate, 15 mM MgCl2, 20 mM EGTA, 1 mg ml^−1 ovalbumin, 10 mM DTT, 0.15 μg μl^−1 histone H1 (Sigma-Aldrich, cat. no. H1917), 22 μM ATP, 0.05 μCi μl^−1 γ^32P-ATP (Perkin Elmer NEG502A250UC), pH 7.3) and incubated at room temperature for 30 min. Reactions were quenched by addition of 5 μl 6× sample buffer (60% glycerol, 6% SDS, 0.03% bromophenol blue, 1,500 mM Tris-Cl pH 6.8, 60 mM DTT) and resolved by SDS–PAGE. Gels were exposed to a phosphor imaging screen for 1–2 d and imaged using a Typhoon FLA 9500 (GE Healthcare Life Sciences). 32P-H1 band intensity was quantified using ImageJ v2.0.0.
# [2] = test system: CDK2; assay: Immune complex histone H1 kinase assay, IP-CDK2, FT282 CCNE1-high cells; details: 24 h
# Protocol: as §1, with “Gels were exposed to a phosphor imaging screen for 1–2 d and imaged using a Typhoon FLA 9500 (GE Healthcare Life Sciences).” left out
# [3] = test system: COV362 cells; assay: Cell proliferation assay (Incucyte growth inhibition); details: COV362, growth inhibition, three replicates
# Excerpt: (§2) Per cent confluence relative to a non-treated control was used to evaluate growth inhibition induced by test compounds. […] (https://synergyfinder.fimm.fi).
# [4] = test system: DOTC24510 cells; assay: as above; details: three replicates
# Excerpt: as §2
# [5] = test system: KYSE30 cells; assay: as above; details: three replicates
# Excerpt: as §2
# [6] = test system: NUGC3 cells; assay: as above; details: three replicates
# Excerpt: as §2
# [7] = test system: OVCAR3 cells; assay: as above; details: three replicates
# Excerpt: as §2
# [8] = test system: RPE1-hTERT TP53-/- Cas9 CCNE1-high cells; assay: as above
# Excerpt: as §2
# [9] = test system: RPE1-hTERT TP53-/- Cas9 parental cells; assay: as above
# Excerpt: as §2
# [10] = test system: SNU8 cells; assay: as above; details: three replicates
# Excerpt: as §2
# [11] = test system: SUM149PT cells; assay: as above; details: three replicates
# Excerpt: as §2
# [12] = test system: TOV112D cells; assay: as above; details: three replicates
# Excerpt: as §2
# [13] = test system: HCC1569 cells; assay: Cell proliferation assay (Incucyte growth inhibition, synergy); details: three replicates
# Excerpt: as §2
structure (smiles),measurement,setting,value
C=CCn1c(=O)c2cnc(Nc3ccc(N4CCN(C)CC4)cc3)nc2n1-c1cccc(C(C)(C)O)n1 [AZD-1775],"32P-labelled histone H1 band intensity, IP-CDK1 kinase assay",[1]; AZD-1775 250 nM,1.298 and 1.203 and 0.7824
same,"32P-labelled histone H1 band intensity, IP-CDK1 kinase assay",[1]; AZD-1775 500 nM,1.804 and 1.271 and 1.266
same,"32P-labelled histone H1 band intensity, IP-CDK1 kinase assay",[1]; AZD-1775 1000 nM,2.54 and 1.785 and 1.69
same,CDK1 kinase activity,[1]; FT282 CCNE1-high cells,activation of both kinases
same,CDK2 kinase activity,[2],activation of both kinases
same,EC50,[3],49 nM
same,EC50,"[4]; Homo sapiens, DoTc2-4510, growth inhibition",38 nM
same,EC50,[4]; growth inhibition,42 nM and 55 nM
same,EC50,"[5]; Homo sapiens, KYSE-30, growth inhibition",0.000437 mM
same,EC50,[5]; growth inhibition,0.000482 mM and 0.000541 mM
same,EC50,"[6]; Homo sapiens, NUGC-3, growth inhibition",0.000212 mM
same,EC50,[6]; growth inhibition,0.000239 mM
same,EC50,"[7]; Homo sapiens, OVCAR-3, growth inhibition",94 nM
same,EC50,[7]; growth inhibition,78 nM and 98 nM
same,EC50,"[8]; Homo sapiens, RPE-1, read-out: RP-6306 EC50 (mM) RPE1 CCNE1 (C2), growth inhibition, three replicates",0.000113 mM
same,EC50,"[8]; read-out: RP-6306 EC50 (mM) RPE1 CCNE1 (C2), growth inhibition, three replicates",0.00015 mM and 0.000111 mM
same,EC50,"[9]; Homo sapiens, RPE-1, read-out: RP-6306 EC50 (mM) RPE1 WT, growth inhibition, three replicates",0.000172 mM
same,EC50,"[9]; read-out: RP-6306 EC50 (mM) RPE1 WT, growth inhibition, three replicates",0.000159 mM and 0.000154 mM
same,EC50,[10],98 nM and 114 nM and 97 nM
same,EC50,[11]; Homo sapiens,0.000211 mM
same,EC50,[11],0.000232 mM and 0.000196 mM
same,EC50,[12]; Homo sapiens,0.000444 mM
same,EC50,[12],0.00039 mM and 0.000454 mM
same,EC50,"[13]; Homo sapiens, HCC1569, growth inhibition",54 nM
same,EC50,[13]; growth inhibition,51 nM and 56 nM
